Laboratory results taken from patent publication US8753604B2, “Methods and compositions for synaphically-targeted treatment for cancer” (Sanford-Burnham Medical Research Institute, priority 2008, dated 2014).
Bridges are numbered along the chain shown (N, C = ends). Where no end group is shown, it is not given here. The star is where a group is joined. FITC = O=C1OC2(c3ccc(O)cc3Oc3cc(O)ccc32)c2ccc(NC(=S)*)cc21

Key:
tumors [1] = details: mouse, in vivo
Protocol: (§1) The peptides were allowed to circulate for 2 hrs and organs were collected and viewed under UV light (left panel) or white light (right panel). […] Fluorescence in each tissue was quantified with Image J software. Statistical analysis was performed with Student's t-test. […] The circulation time for the free peptides was 2 hrs, 15 min for the peptide-displaying phage, and 3 hrs for the peptide-coupled micelles. […] Representative fields from multiple sections of each of three tumors are shown.
(§2) Synthetic peptides labeled with fluorescein (Karmali et al. (2008)) (approximately 200 μg) were intravenously injected into tumor-bearing mice and allowed to circulate for 15 min to 2 hrs. Tissues were collected and observed under UV light (Illumatool Bright Light System LT-9900) or processed for immunofluorescence (Karmali et al. (2008)). To assess phage homing (Zhang et al., (2006)), 10^9 pfu of T7 phage were intravenously injected into tumor-bearing mice, and allowed to circulate for 15 min. The mice were perfused through the heart with PBS containing 1% BSA and tissues were harvested for immunofluorescence.

mitochondrial membranes = details: concentration of 10 μM; cited from earlier work
MDA-MB-435 cells = experiment: FACS analysis of FITC-peptide binding to siRNA-transfected MDA-MB-435 cells; format: cell-based, human; details: 10 μM FITC peptide, 1 h at 4° C.
Protocol: MDA-MB-435 cells were transiently transfected with gC1qR/p32-specific or control siRNAs. […] The amount of fluorescence in living cells was analyzed by FACS. Cells incubated in the absence of peptide served as FITC negative control. Compared to control siRNA transfected cells, down-regulation of gC1qR/p32 expression (in the presence of gC1qR/p32 siRNA) caused a shift in the peak of Lyp-1 fluorescence but not control peptide fluorescence.
Cultured cells were detached with cell enzyme-free dissociation buffer (Gibco/Invitrogen) and collected in PBS containing 1% BSA (PBSB). Single cells suspensions from tumors were obtained as indicated above. For FACS staining, 2.5×10^5 cells were resuspended in 100 μl of PBSB and incubated with polyclonal anti-full-length gC1qR/p32 or rabbit IgG (20 μg/ml) in PBSB for 30 min at 4° C. The cells were washed in PBSB and stained with goat anti rabbit Alexa 488 (2.5 μg/ml) for 30 min at 4° C. For FACS analysis of bound FITC-peptides, cultured cells were detached as above and incubated with 10 μM of FITC-peptides in 10% FCS/DMEM for 1 hour at 4° C. After washes with PBSB, the cells were resuspended in PBS containing 2 μg/ml of propidium iodide (PI, Molecular Probes/Invitrogen) to distinguish between live and dead cells, and 10,000 cells per sample were analyzed using a BD Biosciences FACSort.

PPC1 cells = experiment: Phage internalization assay in PPC1 cells; format: cell-based, human
Description: Mice were maintained in accordance with institutional guidelines and the animal experiments were approved by the Animal Research Committees at University of California, Santa Barbara and San Francisco. transgenic tumor mice (Bardeesy and DePinho, (2002); Arbeit et al., Progressive squamous epithelial neoplasia in K14-human papillomavirus type 16 transgenic mice. J. Virol. 68, 4358-4368 (1994); Hanahan, Heritable formation of pancreatic β-cell tumors in transgenic mice expressing recombinant insulin/simian virus 40 oncogenes. Nature 315, 115-122 (1985)) and xenograft tumors generated by injecting BALB/c nude mice (Harlan Sprague Dawley, Indianapolis, Ind.) with 10^6 human cancer cells orthotopically, intracardiacly or into the brain and tibia were used. […] Phage homing studies in vivo and cell binding studies in vitro (Zhang et al., (2006)), immunofluorescence (Karmali et al. (2008)) and flow cytometry (Sugahara et al., Hyaluronan oligosaccharides induce CD44 cleavage and promote cell migration in CD44-expressing tumor cells. J. Biol. Chem. 278, 32259-32265 (2003)) were done as described. Whole body imaging was performed 3 hrs after injecting the Cy7-labelled micelles with the Odyssey Infrared Imaging System (LI-COR Biosciences, Lincoln, Nebr.). […] FAM-labeled peptides in tissues were quantified by measuring the fluorescence with Image J software. […]

tumors [2] = experiment: In vivo peptide and phage homing (iRGD); details: peptides 2 hrs, phage 15 min circulation
Protocol: as §1, §2

Compound: N=C(N)NCCC[C@@H]1NC(=O)[C@@H](N)CSSC[C@@H](C(=O)O)NC(=O)[C@H](CC(=O)O)NC(=O)[C@@H]2CCCN2C(=O)CNC(=O)[C@H](CCCCN)NC(=O)[C@H](CC(=O)O)NC(=O)CNC1=O [iRGD]
- tumor homing over a control peptide (tumors [1]): 12 fold

Compound: D(KLAKLAK)2
- mitochondrial swelling (mitochondrial membranes): marked mitochondrial swelling

Compound: FITC-LyP-1: FITC conjugated LyP-1 peptide ({FITC}-CGNKRTRGC; disulfide 1-9 (inferred); not fully specified (C-terminus))
- FITC-peptide binding to cells after gC1qR/p32 siRNA versus control siRNA (MDA-MB-435 cells): reduction in the binding

Compound: RGD-4C: RGD peptide (SEQ ID NO:41) with strong affinity for αv integrins (RGDCCCC; homing peptide)
- phage internalization within PPC1 cells (PPC1 cells): nor did they internalize
- distribution within tumor (confocal microscopy) (tumors [2]): accumulated only in and around tumor blood vessels
